Source: ChEMBL document CHEMBL1148424, “Synthesis of novel melanocortin 4 receptor agonists and antagonists containing a succinamide core” (Bioorg Med Chem Lett, 2004)
pEC50, pIC50: −log10 of the molar value.

Legend:
Melanocortin receptor 4 [1] = molecular target: T1, Melanocortin receptor 4 (Homo sapiens, UniProt P32245); experiment: Intracellular level of cAMP in cells expressing the melanocortin 4 receptor; assay type: functional
Melanocortin receptor 4 [2] = molecular target: T1, Melanocortin receptor 4; experiment: Percentage of maximal response with respect to alpha-MSH in cells expressing the melanocortin 4 receptor; assay type: functional
Melanocortin receptor 4 [3] = molecular target: T1, Melanocortin receptor 4; experiment: Inhibitory activity against [125I]NDP-alpha-MSH binding to the human melanocortin 4 receptor
[4] = molecular target: Melanocyte-stimulating hormone receptor (Mus musculus, UniProt Q01727); experiment: Inhibitory activity against mouse melanocortin 1 receptor
Sequence of Melanocyte-stimulating hormone receptor (Q01727 whole entry): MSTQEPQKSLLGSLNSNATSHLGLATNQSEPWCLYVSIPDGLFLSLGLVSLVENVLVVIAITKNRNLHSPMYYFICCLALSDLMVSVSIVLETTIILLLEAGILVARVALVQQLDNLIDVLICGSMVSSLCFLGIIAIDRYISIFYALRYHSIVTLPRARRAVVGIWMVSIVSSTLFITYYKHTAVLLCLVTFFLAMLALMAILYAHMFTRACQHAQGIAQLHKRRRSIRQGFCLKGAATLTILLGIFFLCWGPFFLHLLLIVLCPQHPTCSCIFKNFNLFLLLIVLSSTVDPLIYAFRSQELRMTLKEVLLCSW

Melanocortin receptor 3 = Melanocortin receptor 3 (Homo sapiens, UniProt P41968); experiment: Inhibitory activity against human melanocortin 3 receptor
Sequence of Melanocortin receptor 3 (P41968 whole entry): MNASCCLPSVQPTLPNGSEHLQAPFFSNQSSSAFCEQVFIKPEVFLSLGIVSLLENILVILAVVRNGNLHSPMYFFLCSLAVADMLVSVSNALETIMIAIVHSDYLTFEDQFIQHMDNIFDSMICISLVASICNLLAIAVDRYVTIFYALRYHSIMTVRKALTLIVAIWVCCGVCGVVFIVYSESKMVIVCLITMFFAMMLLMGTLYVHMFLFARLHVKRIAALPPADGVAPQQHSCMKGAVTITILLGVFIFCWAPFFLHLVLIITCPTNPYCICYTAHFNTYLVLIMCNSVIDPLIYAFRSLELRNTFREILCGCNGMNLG

T1 sequence (P32245 whole entry): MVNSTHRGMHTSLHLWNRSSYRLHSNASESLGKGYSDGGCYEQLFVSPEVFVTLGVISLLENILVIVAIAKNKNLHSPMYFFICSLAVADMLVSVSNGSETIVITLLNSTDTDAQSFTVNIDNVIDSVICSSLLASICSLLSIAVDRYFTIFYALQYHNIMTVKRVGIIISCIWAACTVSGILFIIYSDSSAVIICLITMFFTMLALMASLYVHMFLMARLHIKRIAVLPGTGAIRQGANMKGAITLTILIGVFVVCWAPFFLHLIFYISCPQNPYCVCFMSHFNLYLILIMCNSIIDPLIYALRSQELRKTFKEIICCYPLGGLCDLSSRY

SMILES	pEC50 (Melanocortin receptor 4 [1])	Activation (Melanocortin receptor 4 [2]) [%]	pIC50 (Melanocortin receptor 4 [3])	pIC50 [4]	pIC50 (Melanocortin receptor 3)
CC(C)(C)CC(=O)N1CCN(C(=O)C[C@H](Cc2ccc(Cl)cc2)C(=O)N2CCN(c3ccccc3N(CC3CC3)S(C)(=O)=O)CC2)CC1	7.13	45	> 10.00	< 5.74	< 5.00
CS(=O)(=O)N(CC1CC1)c1ccccc1N1CCN(C(=O)[C@@H](Cc2ccc(Cl)cc2)NC(=O)C2CCNCC2)CC1	> 10.00	> 90	6.89		
CCN1CCN(C(=O)C[C@H](Cc2ccc(Cl)cc2)C(=O)N2CCN(c3ccccc3N(CC3CC3)S(C)(=O)=O)CC2)CC1	< 5.00	0	8.02		
CC(=O)N1CCN(C(=O)C[C@H](Cc2ccc(Cl)cc2)C(=O)N2CCN(c3ccccc3N(CC3CC3)S(C)(=O)=O)CC2)CC1	< 5.00	0	7.96	< 5.00	< 5.00
CCN(C(C)=O)C(C)c1ccccc1N1CCN(C(=O)[C@H](CC(=O)N2CCSC2)Cc2ccc(Cl)cc2)CC1 (some centres undefined)	6.28	80	8.03		
CCN(C(C)=O)C(C)c1ccccc1N1CCN(C(=O)[C@H](CC(=O)N2CCN(C(=O)OC(C)(C)C)CC2)Cc2ccc(Cl)cc2)CC1 (some centres undefined)	< 5.00	0	8.70		
CS(=O)(=O)N1CC2(CCN(C(=O)[C@@H](Cc3ccc(Cl)cc3)NC(=O)[C@H]3Cc4ccccc4CN3)CC2)c2ccccc21	8.28	100	7.18	6.82	5.54
CCN(C(C)=O)C(C)c1ccccc1N1CCN(C(=O)[C@H](CC(=O)N2CCC2)Cc2ccc(Cl)cc2)CC1 (some centres undefined)	6.47	90	7.72	< 5.85	< 5.00
CC(C)CCN1CCN(C(=O)C[C@H](Cc2ccc(Cl)cc2)C(=O)N2CCN(c3ccccc3N(CC3CC3)S(C)(=O)=O)CC2)CC1	< 5.00	0	8.32		
CCN(C(C)=O)C(C)c1ccccc1N1CCN(C(=O)[C@H](CC(=O)NCc2ccccn2)Cc2ccc(Cl)cc2)CC1 (some centres undefined)	7.43	95	7.49		
CS(=O)(=O)N(CC1CC1)c1ccccc1N1CCN(C(=O)[C@H](CC(=O)N2CCN(C(=O)c3ccccc3)CC2)Cc2ccc(Cl)cc2)CC1	7.08	55	8.36		
CS(=O)(=O)N(CC1CC1)c1ccccc1N1CCN(C(=O)[C@H](CC(=O)N2CCN(CC3CC3)CC2)Cc2ccc(Cl)cc2)CC1	< 5.00	0	8.52		
CC(C)(C)OC(=O)N1CCN(C(=O)C[C@H](Cc2ccc(Cl)cc2)C(=O)N2CCN(c3ccccc3N(CC3CC3)S(C)(=O)=O)CC2)CC1	< 5.00	0	8.48	< 5.00	< 5.46
CS(=O)(=O)N(CC1CC1)c1ccccc1N1CCN(C(=O)[C@H](CC(=O)N2CCNCC2)Cc2ccc(Cl)cc2)CC1	5.70	70	6.66	< 5.10	< 5.10
CCN(C(C)=O)C(C)c1ccccc1N1CCN(C(=O)[C@H](CC(=O)NC2CCC2)Cc2ccc(Cl)cc2)CC1 (some centres undefined)	7.82	100	8.24	< 6.22	< 5.00
CCOC(=O)N1CCN(C(=O)C[C@H](Cc2ccc(Cl)cc2)C(=O)N2CCN(c3ccccc3N(CC3CC3)S(C)(=O)=O)CC2)CC1	< 5.00	0	8.85	< 5.00	< 5.00
CCN(C(C)=O)C(C)c1ccccc1N1CCN(C(=O)[C@H](CC(=O)NCc2ccccc2F)Cc2ccc(Cl)cc2)CC1 (some centres undefined)	7.05	100	7.89	< 5.80	< 5.00
CCCN1CCN(C(=O)C[C@H](Cc2ccc(Cl)cc2)C(=O)N2CCN(c3ccccc3N(CC3CC3)S(C)(=O)=O)CC2)CC1	< 5.00	0	8.05	< 5.00	< 5.00
